According to US11229634B2, “Methods for treating gastrointestinal disorders using FXR agonists” (Novartis AG, priority 2016, dated 2022):
Converted amounts (≈) assume the structure as drawn. “Also recorded” adds a separate entry of the source.

Assays:
[1] = Single oral dose plasma pharmacokinetics in healthy subjects; format: in vivo; conditions: dose range 10 μg to 3000 μg, human
[2] = Safety and tolerability in healthy subjects; format: in vivo, human; conditions: repeated daily 100 μg; one ALT>ULN, one ALT>3×ULN, one ALT>5×ULN
ANIT-induced cholestasis [3] = assay: Chronic treatment rat ANIT model of cholestasis, serum markers; format: in vivo; conditions: oral dosing 0.01 to 3 mg/kg
Experimental: Rats were treated with alpha-naphthyl-isothiocyanate (ANIT) (0.1% w/w) in food for 3 days prior to treatment with the compound at the indicated doses or with vehicle control (“Veh”). A non-cholestatic control group was fed standard chow diet without ANIT, and serve as the non-cholestatic control animals (“Control”), After […] days of oral dosing, the indicated analyte was measured in serum. LLQ, lower limit of quantitation. Mean±SEM; n=5.

[4] = Multiple oral dose plasma pharmacokinetics in healthy subjects; format: in vivo; conditions: human
FGF19 = conditions: single and repeated dosing, human
ANIT-induced cholestasis [5] = assay: PK/PD modeling of effective exposure in rat ANIT chronic treatment model; format: in vivo; conditions: drug concentration producing 80% of maximum effect
Experimental: Male Wistar rats were treated with ANIT (0.1% ANIT in chow diet) for 2 weeks. […] The serum samples were collected on day 14 for analysis of biomarkers of hepatobiliary injury (including ALT, AST, bilirubin and bile acids). The PK samples (pre-dose, 0.5, 1, 3, 7, 10 and 24 h, n=3/dose group) were taken on day 13 (at steady-state). AUC0-24 h was determined using Phoenix WinNonlin 6.3 software and the average concentrations were calculated from mean of AUC0-24 h at each dose (divided the AUC0-24 h by 24 h). The mean biomarker data were compared to the PK data (average concentration at each dose) for the modeling. The IC80 was determined using the Inhibitory effect Imax model (effect C=0 at Imax, C=infinity at E0) built in Phoenix WinNonlin 6.3 software. […] Therefore, we chose to use a mean of the IC80 for the four biomarkers (total bilirubin, total bile acids, ALT and AST) as the IC80 for efficacy in this model. […]
The PK samples (pre-dose, 0.5, 1, 3, 7, 10 and 24 h, n=3/dose group) were taken on day 13 (at steady-state). AUC0-24 h was determined using Phoenix WinNonlin 6.3 software and the average concentrations were calculated from mean of AUC0-24 h at each dose (divided the AUC0-24 h by 24 h). […] The IC80 was determined using the Inhibitory effect Imax model (effect C=0 at Imax, C=infinity at E0) built in Phoenix WinNonlin 6.3 software.

[6] = Food effect (high-fat meal vs fasted) on pharmacokinetics; format: in vivo; conditions: human
Experimental: To avoid variability in drug exposure, it is recommended that throughout the treatment period, patients will be directed to take study drug at home with ˜240 mL (8 ounces) of water in the morning in a fasting state, at least 30 min prior to the first beverage apart from water and 60 min prior to first meal of the day, preferably at the same time of the day.

[7] = Estimation of human efficacious dose from rat efficacious exposure and human PK; conditions: human, plasma, oral, 6 μg; estimated, molar
Experimental: The human efficacy dose was calculated based on the efficacious exposure in the rat ANIT-induced disease model. Since the in vitro potency and protein binding between human and rat were similar, the EC80 exposure in human was assumed to be the same as that in rat (3.05 ng*h/mL),

FXR = molecular target: T1, FXR (Homo sapiens, UniProt Q96RI1); conditions: clinical studies in PBC or NASH subjects; cited from earlier work
T1 construct: OCA was tested at doses between 5 mg and 50 mg in PBC subjects or NASH subjects; host or cells: human subjects (PBC, NASH), endogenous receptor
T1 sequence (Q96RI1 1-486): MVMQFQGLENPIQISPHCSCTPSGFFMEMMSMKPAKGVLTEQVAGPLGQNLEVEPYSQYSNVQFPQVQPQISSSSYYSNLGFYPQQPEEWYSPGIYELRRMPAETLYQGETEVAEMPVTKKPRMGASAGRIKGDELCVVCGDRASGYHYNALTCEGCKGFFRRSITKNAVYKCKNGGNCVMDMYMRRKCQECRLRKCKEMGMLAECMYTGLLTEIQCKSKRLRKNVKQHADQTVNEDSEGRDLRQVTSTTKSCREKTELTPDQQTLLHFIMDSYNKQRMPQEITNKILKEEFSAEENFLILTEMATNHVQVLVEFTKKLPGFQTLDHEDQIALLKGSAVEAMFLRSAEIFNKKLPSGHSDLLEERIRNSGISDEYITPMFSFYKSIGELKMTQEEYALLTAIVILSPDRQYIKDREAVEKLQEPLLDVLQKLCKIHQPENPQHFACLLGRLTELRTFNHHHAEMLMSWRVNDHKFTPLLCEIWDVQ

Row | Structure (SMILES) | dose dependence of mean Cmax and AUCinf [1] | subjects with elevation of transaminases (ALT and AST) [2] [subjects] | dose from which hepatobiliary injury indicators (AST, ALT, bilirubin, bile acids) improved (ANIT-induced cholestasis [3]) [mg/kg] | dose dependence of Cmax and AUC (AUCtau/AUCinf), plasma exposure ([4]; multiple once daily doses, dose range 10 μg to 100 μg) | day by which steady-state was reached ([4]; once daily oral dosing 10-100 μg, trough levels) [days] | FGF19 response to dose (FGF19) | IC80, total bilirubin (ANIT-induced cholestasis [5]) [ng/mL] | median Tmax, fasted state ([6]; fasted comparator of food effect) [h] | increase of mean AUCinf with high-fat meal compared to the fasted state [6] | increase of mean Cmax with high-fat meal compared to the fasted state [6] | Cmax [7] [nM] | side effect associated with treatment (FXR)
1 | O=C(O)c1cc(F)c2nc(N3C4CC[C@H]3CC(OCc3c(-c5ccccc5OC(F)(F)F)noc3C3CC3)C4)sc2c1 (stereo partly drawn) [Compound A, 2-[(1R,3r,5S)-3-({5-cyclopropyl-3-[2-(trifluoromethoxy)phenyl]-1,2-oxazol-4-yl}methoxy)-8-azabicyclo[3.2.1]octan-8-yl]-4-fluoro-1,3-benzothiazole-S-carboxylic acid] | approximately dose proportional increase | 3 | 0.01 | approximately dose-proportional increase; also recorded: approximately dose proportional increase | ≤ 4 | dose-dependent increases in FGF19 | 0.223 (≈ 0.369 nM) | 4 | approximately 60% | approximately 60% | ~0.3 | 
2 | CC[C@H]1[C@@H](O)[C@@H]2[C@H](CC[C@]3(C)[C@@H]([C@H](C)CCC(=O)O)CC[C@@H]23)[C@@]2(C)CC[C@@H](O)C[C@@H]12 [OCA, 6α-ethyl-chenodeoxycholic acid] |  |  |  |  |  |  |  |  |  |  |  | increased pruritus
